The results in this text go back to ChEMBL document CHEMBL1287691, “Pyrazole derivatives from azines of substituted phenacyl aryl/cyclohexyl sulfides and their antimycobacterial activity” (2010).

≈ marks a conversion by molar mass, not a printed value.

The first experiment relates to Mycobacterium tuberculosis. In words: Antimycobacterial activity against Mycobacterium tuberculosis H37Rv at 6.25 ug/ml. Format: functional.
As to `CC(=O)/C(=N/Nc1c(C)n[nH]c1C)C(=O)O`, the inhibition at 6.25 µg/mL was determined as 29%.

The compound `COCC(=O)/C(=N/Nc1c(C)n[nH]c1C)C(=O)OC` registered an inhibition at 6.25 µg/mL of 28%.

The test system of another experiment is Mycobacterium tuberculosis. In words: Antimycobacterial activity against Mycobacterium tuberculosis H37Rv by agar dilution method. The format is functional. Background: Agar dilution tests growth on a series of plates holding different concentrations.
On to `Clc1ccc(S/C=C(\c2ccc3ccccc3c2)n2cc(Sc3ccc(Cl)cc3)c(-c3ccc4ccccc4c3)n2)cc1`, for which the minimum inhibitory concentration (MIC) stood at 6.25 µg/mL (≈ 9.89 µM).

Turning to `Clc1ccc(S/C=C(/c2ccc3ccccc3c2)n2cc(Sc3ccc(Cl)cc3)c(-c3ccc4ccccc4c3)n2)cc1`, the MIC is 12.5 µg/mL (≈ 19.8 µM). This MIC is about 2-fold higher than that of the compound before.

Compound `Clc1ccc(S/C=C(/c2ccc(Cl)cc2)n2cc(Sc3ccc(Cl)cc3)c(-c3ccc(Cl)cc3)n2)cc1` registered an MIC of 3.13 µg/mL (≈ 5.21 µM).

For the compound `Clc1ccc(S/C=C(/c2ccccc2)n2cc(Sc3ccc(Cl)cc3)c(-c3ccccc3)n2)cc1`, the MIC was greater than 25 µg/mL.

The compound `C(/SC1CCCCC1)=C(\c1ccccc1)n1cc(SC2CCCCC2)c(-c2ccccc2)n1` returned an MIC of 12.5 µg/mL (≈ 26.3 µM).

As for `Cc1ccc(/C(=C/SC2CCCCC2)n2cc(SC3CCCCC3)c(-c3ccc(C)cc3)n2)cc1`, 6.25 µg/mL (≈ 12.4 µM) was the least that counted as inhibitory (MIC).

For `COc1ccc(/C(=C/SC2CCCCC2)n2cc(SC3CCCCC3)c(-c3ccc(OC)cc3)n2)cc1`, 12.5 µg/mL (≈ 23.4 µM) was the least that counted as inhibitory (MIC).

In turn, `O=[N+]([O-])c1ccc(/C(=C/SC2CCCCC2)n2cc(SC3CCCCC3)c(-c3ccc([N+](=O)[O-])cc3)n2)cc1` registered an MIC of 1.56 µg/mL (≈ 2.76 µM).

For `Clc1ccc(S/C=C(\c2ccc(Cl)cc2)n2cc(Sc3ccc(Cl)cc3)c(-c3ccc(Cl)cc3)n2)cc1`, the MIC is 1.56 µg/mL (≈ 2.6 µM).

The compound `COc1ccc(/C(=C\Sc2ccc(Cl)cc2)n2cc(Sc3ccc(Cl)cc3)c(-c3ccc(OC)cc3)n2)cc1` returned an MIC of 6.25 µg/mL (≈ 10.6 µM).

`Clc1ccc(S/C=C(\c2ccccc2)n2cc(Sc3ccc(Cl)cc3)c(-c3ccccc3)n2)cc1`: the lowest concentration to inhibit growth (MIC) was 12.5 µg/mL (≈ 23.5 µM).

In the case of `Cc1ccc(/C(=C\Sc2ccc(Cl)cc2)n2cc(Sc3ccc(Cl)cc3)c(-c3ccc(C)cc3)n2)cc1`, the MIC amounted to 6.25 µg/mL (≈ 11.2 µM). This MIC lies about 2-fold lower than the previous one.

For the compound `Cc1ccc(S/C=C(\c2ccc(Cl)cc2)n2cc(Sc3ccc(C)cc3)c(-c3ccc(Cl)cc3)n2)cc1`, the minimal inhibitory concentration (MIC) amounted to 12.5 µg/mL (≈ 22.3 µM).

Take `Clc1ccc(/C(=C\Sc2ccccc2)n2cc(Sc3ccccc3)c(-c3ccc(Cl)cc3)n2)cc1`: it took 25 µg/mL (≈ 47 µM) to inhibit growth (MIC).

The compound `C(/SC1CCCCC1)=C(/c1ccccc1)n1cc(SC2CCCCC2)c(-c2ccccc2)n1` yielded an MIC of 6.25 µg/mL (≈ 13.2 µM).

As for `Cc1ccc(/C(=C\SC2CCCCC2)n2cc(SC3CCCCC3)c(-c3ccc(C)cc3)n2)cc1`, the MIC was determined as 3.13 µg/mL (≈ 6.23 µM). This MIC is about 2-fold lower than that of the compound before.

Compound `COc1ccc(/C(=C\SC2CCCCC2)n2cc(SC3CCCCC3)c(-c3ccc(OC)cc3)n2)cc1` registered an MIC of 3.13 µg/mL (≈ 5.85 µM).

Regarding `Clc1ccc(/C(=C\SC2CCCCC2)n2cc(SC3CCCCC3)c(-c3ccc(Cl)cc3)n2)cc1`, the minimal inhibitory concentration (MIC) came out at 1.56 µg/mL (≈ 2.87 µM). Against the preceding compound, the MIC is about 2-fold lower.

With `O=[N+]([O-])c1ccc(/C(=C\SC2CCCCC2)n2cc(SC3CCCCC3)c(-c3ccc([N+](=O)[O-])cc3)n2)cc1`, 0.78 µg/mL (≈ 1.38 µM) was the least that counted as inhibitory (MIC).

`Clc1ccc(/C(=C/Sc2ccccc2)n2cc(Sc3ccccc3)c(-c3ccc(Cl)cc3)n2)cc1` displayed an MIC greater than 25 µg/mL.

Regarding `Cc1ccc(S/C=C(/c2ccc(Cl)cc2)n2cc(Sc3ccc(C)cc3)c(-c3ccc(Cl)cc3)n2)cc1`, the MIC is 12.5 µg/mL (≈ 22.3 µM).

The compound `CC[C@@H](CO)NCCN[C@@H](CC)CO` [ETHAMBUTOL] returned a minimum inhibitory concentration (MIC) of 1.56 µg/mL (≈ 7.64 µM).

The compound `NNC(=O)c1ccncc1` [ISONIAZID] showed an MIC of 0.05 µg/mL (≈ 0.365 µM). Compared with the last compound, the MIC is about 31-fold lower.

Turning to `NC(=O)c1cnccn1` [PYRAZINAMIDE], the minimum inhibitory concentration (MIC) is 6.25 µg/mL (≈ 50.8 µM).

Usually inhibition stands for the drop in the measured response relative to a control, in per cent. A high value points to a strong effect. The MIC is the lowest concentration that inhibits growth of the organism. A high value points to a need for much substance.
